Data on four compounds can be found in the NIST ThermoML archive (doi:10.1016/j.jct.2007.03.004).

± gives the expanded uncertainty stated by the source.

For data set [1] the following is noted: Liquid; for mass density: 293.15 K, 101.33 kPa; for Normal boiling temperature: Distillation.
The nature of data set [2]: refractive index (Na D-line) (dimensionless). The conditions noted are these: 293.15 K; 101.33 kPa; Liquid; Standard Abbe refractometry.

With `CCOC(=O)CCC(=O)OCC` [diethyl butanedioate], in data set [1], the mass density (commonly the mass of a sample divided by its volume) is listed as 1040.22 ± 0.5 kg/m3 and the Normal boiling temperature is 217.7 ± 0.2 °C. Also, in data set [2], the refractive index (in general, a measure of how strongly the sample bends light) stood at 1.42014 ± 0.0007.
The like results for `CCOC(=O)CCCC(=O)OCC` [diethyl glutarate] were, in that order, 1022.04 ± 1.2 kg/m3, 236.5 ± 0.2 °C and 1.42414 ± 0.00078.
Consider `CCOC(=O)CCCCC(=O)OCC` [diethyl hexanedioate], for which, in data set [1], the mass density stood at 1007.63 ± 0.41 kg/m3 and the Normal boiling temperature turned out to be 245.2 ± 0.2 °C. Moreover, the refractive index in data set [2] is 1.42725 ± 0.0007.
With `CCC(=O)O` [propanoic acid], in data set [1], the mass density is listed as 988.04 ± 0.41 kg/m3 and the Normal boiling temperature amounted to 141.4 ± 0.2 °C. Moreover, the refractive index in data set [2] was 1.3808 ± 0.0007.
